From PubChem BioAssay (NCI)
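Cells were grown in 96-well plates and exposed to each compound for 48 hours at five concentrations; endpoints were interpolated linearly between bracketing concentrations, or set to the highest concentration if not reached. TGI denotes the concentration required for complete inhibition of growth.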

Assays:
Assay in all cases: NCI-60 cell line screen, 48 h
[1] = system: RPMI-8226 leukemia
[2] = system: LXFL 529 NSCLC
[3] = system: KM12 colon
[4] = system: SN12C renal
[5] = system: SK-MEL-28 melanoma
[6] = system: RXF-631 renal
[7] = system: HCC-2998 colon
[8] = system: HOP-62 NSCLC
[9] = system: MOLT-4 leukemia
[10] = system: CAKI-1 renal
[11] = system: CCRF-CEM leukemia
[12] = system: M14 melanoma
[13] = system: SK-MEL-2 melanoma
[14] = system: HL-60(TB) leukemia
[15] = system: SF-268 CNS
[16] = system: HCT-15 colon
[17] = system: SNB-19 CNS
[18] = system: COLO 205 colon
[19] = system: UO-31 renal
[20] = system: OVCAR-4 ovarian
[21] = system: SR leukemia
[22] = system: DLD-1 colon
[23] = system: HCT-116 colon
[24] = system: DMS 273 small cell lung
[25] = system: NCI-H226 lung
[26] = system: RXF 393 renal
[27] = system: HT29 colon
[28] = system: KM20L2 colon
[29] = system: U251 CNS
[30] = system: UACC-257 melanoma
[31] = system: M19-MEL melanoma
[32] = system: EKVX NSCLC
[33] = system: SF-295 CNS
[34] = system: OVCAR-8 ovarian
[35] = system: 786-0 renal
[36] = system: IGROV1 ovarian
[37] = system: XF 498 CNS
[38] = system: A549 NSCLC
[39] = system: NCI-H23 lung
[40] = system: NCI-H460 lung
[41] = system: LOX IMVI melanoma
[42] = system: OVCAR-3 ovarian
[43] = system: SW-620 colon
[44] = system: MALME-3M melanoma
[45] = system: OVCAR-5 ovarian
[46] = system: DMS 114 small cell lung
[47] = system: K-562 leukemia
[48] = system: SF-539 CNS
[49] = system: TK-10 renal
[50] = system: SK-OV-3 ovarian
[51] = system: NCI-H522 lung
[52] = system: SNB-75 CNS
[53] = system: HOP-92 NSCLC
[54] = system: ACHN renal

Measured: TGI

NC1N=Nc2ccccc21 (centres undefined)
> 100 µM: all assays above
